In PubChem BioAssay (NCI):
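Assay format: 96-well plates, 48-hour exposure. TGI: concentration producing complete growth inhibition.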

Assays:
Assay in all cases: NCI-60 cell line screen, 48 h
[1] = tested on: 786-0 renal
[2] = tested on: A498 renal
[3] = tested on: A549 NSCLC
[4] = tested on: ACHN renal
[5] = tested on: BT-549 breast
[6] = tested on: CAKI-1 renal
[7] = tested on: CCRF-CEM leukemia
[8] = tested on: COLO 205 colon
[9] = tested on: DU-145 prostate
[10] = tested on: EKVX NSCLC
[11] = tested on: HCC-2998 colon
[12] = tested on: HCT-116 colon
[13] = tested on: HCT-15 colon
[14] = tested on: HOP-92 NSCLC
[15] = tested on: HT29 colon
[16] = tested on: IGROV1 ovarian
[17] = tested on: K-562 leukemia
[18] = tested on: KM12 colon
[19] = tested on: LOX IMVI melanoma
[20] = tested on: M14 melanoma
[21] = tested on: MCF7 breast
[22] = tested on: MDA-MB-231 breast
[23] = tested on: MDA-MB-435
[24] = tested on: MDA-N
[25] = tested on: MOLT-4 leukemia
[26] = tested on: NCI-H226 lung
[27] = tested on: NCI-H23 lung
[28] = tested on: NCI-H460 lung
[29] = tested on: NCI/ADR-RES ovarian
[30] = tested on: OVCAR-3 ovarian
[31] = tested on: OVCAR-4 ovarian
[32] = tested on: OVCAR-5 ovarian
[33] = tested on: OVCAR-8 ovarian
[34] = tested on: PC-3 prostate
[35] = tested on: RPMI-8226 leukemia
[36] = tested on: RXF 393 renal
[37] = tested on: SF-295 CNS
[38] = tested on: SF-539 CNS
[39] = tested on: SK-MEL-2 melanoma
[40] = tested on: SK-MEL-28 melanoma
[41] = tested on: SK-MEL-5 melanoma
[42] = tested on: SK-OV-3 ovarian
[43] = tested on: SN12C renal
[44] = tested on: SNB-19 CNS
[45] = tested on: SNB-75 CNS
[46] = tested on: SR leukemia
[47] = tested on: SW-620 colon
[48] = tested on: T-47D breast
[49] = tested on: TK-10 renal
[50] = tested on: U251 CNS
[51] = tested on: UACC-257 melanoma
[52] = tested on: UACC-62 melanoma
[53] = tested on: UO-31 renal
[54] = tested on: HOP-62 NSCLC
[55] = tested on: HS 578T breast
[56] = tested on: MALME-3M melanoma
[57] = tested on: NCI-H522 lung
[58] = tested on: SF-268 CNS

In the case of `COC(=O)C1=C(O)CCCC(C2CCCCC(=O)C2C(=O)OC)=C1` (stereo not drawn), the TGI [1] is reported as over 100 µM, the TGI [2] is reported as 58.7 µM and the TGI [3] is reported as over 100 µM. It also gave a TGI [4] of over 100 µM, a TGI [5] of over 100 µM and a TGI [6] of over 100 µM. The TGI [7] was 89.3 µM, the TGI [8] was over 100 µM and the TGI [9] was over 100 µM. It also gave a TGI [10] of over 100 µM, a TGI [11] of 91.6 µM and a TGI [12] of over 100 µM. It also gave a TGI [13] of over 100 µM, a TGI [14] of over 100 µM and a TGI [15] of over 100 µM. It also gave a TGI [16] of over 100 µM, a TGI [17] of over 100 µM and a TGI [18] of over 100 µM. The TGI [19] was over 100 µM, the TGI [20] was over 100 µM and the TGI [21] was 70.4 µM. For the same molecule, the TGI [22] was over 100 µM, the TGI [23] was over 100 µM and the TGI [24] was over 100 µM. The TGI [25] was over 100 µM, the TGI [26] was over 100 µM and the TGI [27] was over 100 µM. For the same molecule, the TGI [28] was 39.6 µM, the TGI [29] was over 100 µM and the TGI [30] was over 100 µM. It also gave a TGI [31] of over 100 µM, a TGI [32] of over 100 µM and a TGI [33] of over 100 µM. The TGI [34] was over 100 µM, the TGI [35] was over 100 µM and the TGI [36] was over 100 µM. The TGI [37] was over 100 µM, the TGI [38] was over 100 µM and the TGI [39] was over 100 µM. It also gave a TGI [40] of over 100 µM, a TGI [41] of over 100 µM and a TGI [42] of over 100 µM. For the same molecule, the TGI [43] was over 100 µM, the TGI [44] was over 100 µM and the TGI [45] was over 100 µM. The TGI [46] was over 100 µM, the TGI [47] was over 100 µM and the TGI [48] was over 100 µM. For the same molecule, the TGI [49] was over 100 µM, the TGI [50] was over 100 µM and the TGI [51] was over 100 µM. The TGI [52] was 42.3 µM and the TGI [53] was over 100 µM.

`COc1cc(Cc2cnc(N)nc2N)cc(OC)c1OCCCNc1ccc([N+](=O)[O-])cc1` was tested, and the TGI [1] was 28 µM, the TGI [2] was 39.3 µM and the TGI [3] was 35.2 µM. For the same molecule, the TGI [4] was 37.8 µM, the TGI [5] was 31.1 µM and the TGI [6] was over 100 µM. It also gave a TGI [7] of 35.2 µM, a TGI [8] of 27.4 µM and a TGI [9] of 30.2 µM. The TGI [10] was 32 µM, the TGI [11] was 31.4 µM and the TGI [12] was 30.4 µM. The TGI [13] was 37.8 µM, the TGI [54] was 27.4 µM and the TGI [14] was 36.4 µM. The TGI [55] was over 100 µM, the TGI [15] was 14.8 µM and the TGI [16] was 28.3 µM. For the same molecule, the TGI [17] was over 100 µM, the TGI [18] was 32.2 µM and the TGI [20] was 19.2 µM. For the same molecule, the TGI [56] was 25.8 µM, the TGI [21] was 26.5 µM and the TGI [22] was 27.5 µM. It also gave a TGI [23] of 29.8 µM, a TGI [24] of 32.9 µM and a TGI [25] of 8.66 µM. The TGI [26] was 28.4 µM, the TGI [27] was 31.8 µM and the TGI [28] was 26 µM. The TGI [57] was 26.3 µM, the TGI [29] was 60 µM and the TGI [30] was 28.1 µM. For the same molecule, the TGI [31] was 33.6 µM, the TGI [32] was 35.5 µM and the TGI [33] was 30.1 µM. For the same molecule, the TGI [34] was 22.3 µM, the TGI [36] was 25.2 µM and the TGI [58] was 74 µM. The TGI [38] was 26.1 µM, the TGI [39] was 29.5 µM and the TGI [40] was 27.1 µM. The TGI [41] was 18.9 µM, the TGI [42] was 66.6 µM and the TGI [43] was 41.4 µM. For the same molecule, the TGI [44] was 27 µM, the TGI [45] was 32.7 µM and the TGI [46] was 24.3 µM. For the same molecule, the TGI [47] was 34.2 µM, the TGI [48] was 25.3 µM and the TGI [49] was 32.7 µM. For the same molecule, the TGI [50] was 29.2 µM, the TGI [51] was 25.9 µM and the TGI [52] was 26.7 µM. It also gave a TGI [53] of 26.5 µM.
